Columns and labels:
[1] = NAL depletion percent, HPLC-UV detection (281 nm)
Experimental: (§1) 1) To a 50 mL vessel, 12.6 mg (±0.1 mg) of NAL is weighed; to this, a 25 mL measuring pipet is used to add 20 mL of 100 mmol/L phosphate buffer (pH: 10.2); and the content is gently stirred using a test tube mixture to achieve dissolution (2 mmol/L NAL solution). 2) To a 500 mL vessel, 149.5 mL of this buffer is added using a 50 mL measuring pipet; to this, 0.5 mL of the above-described 2 mmol/L NAL solution is added; and the content is mixed by inversion to achieve 300-fold dilution (6.667 μmol/L).
(§2) The test substance undiluted solution is defined as an “undiluted solution”, and used. Incidentally, this “undiluted solution” may be appropriately diluted to, for example, 1/10, 1/100, or 1/1000, using an appropriate solvent, and the resultant solution may be used.
(§3) Subsequently, the solution having the maximum dissolution concentration is defined as an “undiluted solution”, and tested. Incidentally, this “undiluted solution” may be appropriately diluted to, for example, 1/10, 1/100, or 1/1000, using an appropriate solvent, and the resultant solution may be used.
(§4) The test substance is prepared at 1 mmol/L in any of solvents that are water, acetonitrile, acetone, and a 5 mass % dimethyl sulfoxide (DMSO)/acetonitrile solution and used as a test substance solution. As the solvent, a solvent in which the test substance dissolves at 1 mmol/L is used; when the test substance is soluble in a plurality of solvents, the solvent is selected in the following order of decreasing precedence: water, acetonitrile, acetone, and 5 mass % DMSO/acetonitrile.
(§5) Test substance solutions are prepared on a 96-well plate (U96 PP-0.5 ML NATURAL, Thermo Fisher Scientific Inc. (NUNC)) mainly using a 12-channel pipette, and a reagent is added in accordance with the following formula.
(§6) Nucleophilic reagent (NAC and NAL): 150 μL
(§7) Test substance solution: 50 μL
(§8) The plate is tightly sealed using a plate sealing (Resistant embossed seal, SHIMADZU GLC Ltd.), and stirred using a plate shaker (Titramax 100, Heidolph Instruments GmbH & CO. KG). The plate is subjected to spinning down using a centrifuge, and then to incubation at 25° C., for 24 hours, in a light-shielded state.
(§9) After the incubation for 24 hours, the plate sealing is removed; to each sample, 50 µL of the reaction stopping solution is added to stop the reaction.
(§10) The HPLC measurement conditions for the nucleophilic reagents are as follows.
(§11) From the average values (each, n=3) of peak areas of the post-reaction unreacted NAC or NAL and the blank-test (after performing the reaction step without addition of the test substances) NAC or NAL, the following formula is used to calculate the depletion percent of NAC or NAL.
(§12) NAL depletion percent (% depletion)=[1−(Average value of peak areas of post-reaction unreacted NAL/Average value of peak areas of blank-test (after performing the reaction step without addition of the test substances) NAL)]×100
(§13) The average value of peak areas of post-reaction unreacted NAL is the average value of areas obtained by measuring three times post-reaction unreacted NAL. The average value of peak areas of blank-test (after performing the reaction step without addition of the test substances) NAL is the average value of areas obtained by measuring three times blank-test (after performing the reaction step without addition of the test substances) NAL.
(§14) The reactions were each performed on a 96-well plate, and the number of samples of each case was set to n=3. In addition, as controls, reaction solutions including the solvent alone were prepared. The reaction solutions were prepared so as to have a NAC or NAL concentration of 5 μmon. To the reaction solutions after the lapse of 24 hours, a trifluoroacetic acid (TFA) aqueous solution was added such that the final concentration became 0.5% (v/v) TFA. Subsequently, HPLC was performed for measurements by two detection methods that were light absorption detection using a photodiode array (PDA) detector, and fluorescence detection using a fluorescence detector.

[2] = NAC depletion percent, HPLC-UV detection (281 nm)
Experimental: as §1, with “11.6” for “12.6”, “NAC” for “NAL”, “8.0);” for “10.2);”, “mixer” for “mixture”, “mmol/L).” for “mmol/L NAL solution).”, “μmon).” for “μmol/L).”
as §2, §3, §4, §5, §6, §7, §8, §9, §10, §11
(§15) NAC depletion percent (% depletion)=[1−(Average value of peak areas of post-reaction unreacted NAC/Average value of peak areas of blank-test (after performing the reaction step without addition of the test substances) NAC)]×100
(§16) The average value of peak areas of the post-reaction unreacted NAC is the average value of areas obtained by measuring three times post-reaction unreacted NAC. The average value of peak areas of blank-test (after performing the reaction step without addition of the test substances) NAC is the average value of areas obtained by measuring three times blank-test (after performing the reaction step without addition of the test substances) NAC.
as §14

[3] = NAC depletion percent, HPLC-fluorescence detection
Experimental: as §1, with “11.6” for “12.6”, “NAC” for “NAL”, “8.0);” for “10.2);”, “mixer” for “mixture”, “mmol/L).” for “mmol/L NAL solution).”, “μmon).” for “μmol/L).”
as §2, §3, §4, §5, §6, §7, §8, §9, §10, §11, §15, §16, §14

[4] = Average score of NAC and NAL depletion and prediction of skin allergenicity, UV method; settings: for Average score: test substance solution 1 mmol/L; for Mean Depletion (%) (average score) / determination of skin allergenicity from average score: UV method; for determination of skin allergenicity from average score: criterion […]
Experimental: (§17) The average value (Average Score) of NAC and NAL depletion percents is calculated. In the resultant value, the second decimal place is rounded off.
(§18) Average value (Average Score) of NAC and NAL depletion percents=(NAC depletion percent+NAL depletion percent)/2
(§19) The depletion percent of at least one of NAC or NAL or the average score of the depletion percents of NAC and NAL is calculated, and whether or not the test substances are “allergenic substances” or “non-allergenic substances” is determined:
(§20) (1) in a case of performing evaluation based on the average value of the depletion percent of NAC and the depletion percent of NAL,
(§21) In the following Tables, S represents as being an allergenic substance and NS represents as being a non-allergenic substance.

[5] = Average score of NAC and NAL depletion and prediction of skin allergenicity, fluorescence method; settings: for Average score: test substance solution 1 mmol/L; for determination of skin allergenicity from average score: criterion […]
Experimental: as §17, §18, §19, §20, §21

[6] = NAL depletion percent, HPLC-fluorescence detection
Experimental: as §1, §2, §3, §4, §5, §6, §7, §8, §9, §10, §11, §12, §13, §14

[7] = Reference (UV method), non-allergenic substance
[8] = Fluorescence method, non-allergenic substance
[9] = Reference (UV method), skin allergenicity prediction
[10] = Fluorescence method, skin allergenicity prediction
[11] = single substance, test substance solution 1 mmol/L, Reference (UV method)
[12] = single substance, test substance solution 1 mmol/L, fluorescence method
[13] = single substance, Reference (UV method)
[14] = single substance, fluorescence method
[15] = 1/1 (undiluted solution), UV method
[16] = 1/10 diluted solution, UV method
[17] = 1/1 (undiluted solution), fluorescence method, 25° C. 24 hours
[18] = 1/10 diluted solution, fluorescence method
[19] = 1/1 (undiluted solution), fluorescence method

SMILES | NAL depletion (%) [1, 7] [%] | NAC depletion (%) [2, 7] [%] | NAC depletion (%) [3, 8] [%] | Prediction result [4, 9] | Prediction result [5, 10] | NAL depletion (%) [6, 8] [%] | also measured
CCCCCCCCCCCCCC(=O)OC(C)C [Isopropyl myristate] | 1.8 | 0.0 | 0.4 | NS (NS represents as being a non-allergenic substance) | NS (NS represents as being a non-allergenic substance) | 5.8 | 
O=C(O)C(=O)O [Oxalic acid] |  |  |  |  |  |  | NAL depletion (%) [1, 11]: 3.6%; NAC depletion (%) [2, 11]: 0.0%; NAC depletion (%) [3, 12]: 0.0%; Average score [4, 13]: 1.8%; Average score [5, 14]: 0.1%; NAL depletion (%) [6, 12]: 0.3%
O=c1ccc2ccccc2o1 [Coumarin] | 3.9 | 0.5 | 1.2 | NS (NS represents as being a non-allergenic substance) | NS (NS represents as being a non-allergenic substance) | 0.4 | 
CC(O)C(=O)O (centres unmarked) [Lactic acid] | 2.8 | 0.0 | 1.4 | NS (NS represents as being a non-allergenic substance) | NS (NS represents as being a non-allergenic substance) | 0.0 | 
O=C(O)c1ccc(O)c(O)c1 [Protocatechuic acid] |  |  |  |  |  |  | NAL depletion (%) [1, 15]: 18.6%; NAL depletion (%) [1, 16]: 11.9%; NAC depletion (%) [2, 15]: 60.8%; NAC depletion (%) [2, 16]: 30.1%; NAC depletion (%) [3, 17]: 58.1%; NAC depletion (%) [3, 18]: 27.3%; Mean Depletion (%) (average score) ([4]; 1/1 (undiluted solution)): 39.7%; determination of skin allergenicity from average score ([4]; 1/1 (undiluted solution)): having skin allergenicity; Mean Depletion (%) (average score) ([4]; 1/10 diluted solution): 21.0%; determination of skin allergenicity from average score ([4]; 1/10 diluted solution): having skin allergenicity; Mean Depletion (%) (average score) [5, 19]: 48.2%; determination of skin allergenicity from average score [5, 19]: having skin allergenicity; Mean Depletion (%) (average score) [5, 18]: 19.4%; determination of skin allergenicity from average score [5, 18]: having skin allergenicity; NAL depletion (%) [6, 17]: 38.3%; NAL depletion (%) [6, 18]: 11.5%
CC(=O)C(=O)CC(C)C [5-Methyl-2,3-hexanedione] |  |  |  |  |  |  | NAL depletion (%) [1, 11]: 34.8%; NAC depletion (%) [2, 11]: 6.4%; NAC depletion (%) [3, 12]: 14.8%; Prediction result ([4]; single substance, Reference (UV method), criterion average score […]): S (S represents as being an allergenic substance); Average score [4, 13]: 20.6%; Prediction result ([5]; single substance, fluorescence method, criterion average score […]): S (S represents as being an allergenic substance); Average score [5, 14]: 20.4%; NAL depletion (%) [6, 12]: 26.1%
CC(=O)C1CCCCC1=O (centres unmarked) [2-Acetylcyclohexanone] | 0.3 | 1.3 | 3.5 | NS (NS represents as being a non-allergenic substance) | NS (NS represents as being a non-allergenic substance) | 0.0 | 
COC(=O)c1ccccc1O [Methyl salicylate] | 0.4 | 0.0 | 0.3 | NS (NS represents as being a non-allergenic substance) | NS (NS represents as being a non-allergenic substance) | 0.0 | 
CCCCBr [1-Bromobutane] | 2.4 | 0.1 | 0.0 | NS (NS represents as being a non-allergenic substance) | NS (NS represents as being a non-allergenic substance) | 0.0 | 
CC(=O)C(C)=O [2,3-Butanedione] |  |  |  |  |  |  | NAL depletion (%) [1, 11]: 25.5%; NAC depletion (%) [2, 11]: 41.2%; NAC depletion (%) [3, 12]: 45.2%; Average score [4, 13]: 33.4%; Average score [5, 14]: 31.4%; NAL depletion (%) [6, 12]: 17.7%
Nc1ccc(S(=O)(=O)O)cc1 [Sulfanilic acid] | 0.4 | 0.5 | 0.0 | NS (NS represents as being a non-allergenic substance) | NS (NS represents as being a non-allergenic substance) | 0.1 | 
COC(=O)c1ccc(O)cc1 [Methylparaben] | 1.3 | 0.1 | 0.7 | NS (NS represents as being a non-allergenic substance) | NS (NS represents as being a non-allergenic substance) | 4.7 | 
CC(C=O)Cc1ccc(C(C)(C)C)cc1 (centres unmarked) [Lilial] |  |  |  |  |  |  | NAL depletion (%) [1, 11]: 3.9%; NAC depletion (%) [2, 11]: 7.0%; NAC depletion (%) [3, 12]: 18.0%; Prediction result [4]: S (key: S represents as being an allergenic substance; NS represents as being a non-allergenic substance); Average score [4, 13]: 5.4%; Prediction result [5]: S (key: S represents as being an allergenic substance; NS represents as being a non-allergenic substance); Average score [5, 14]: 9.1%; NAL depletion (%) [6, 12]: 0.2%
CC(O)CO (centres unmarked) [Propylene glycol] | 2.2 | 0.1 | 0.7 | NS (NS represents as being a non-allergenic substance) | NS (NS represents as being a non-allergenic substance) | 5.0 | 
OCC(O)CO [Glycerol] | 0.7 | 0.3 | 0.2 | NS (NS represents as being a non-allergenic substance) | NS (NS represents as being a non-allergenic substance) | 0.0 | 
